Key:
Sarcoptes scabiei nits = assay: ovicidal activity against scabies eggs (hatching rate)
Method: To determine the ovicidal activity of Manuka oil and its fraction, dilutions to 2.5% and 5% were made in olive oil. […] Six independent experiments were conducted on separate days.

[1] = tested on: P. humanus capitis adults and nymphs; assay: filter paper diffusion bioassay, pediculicidal activity; settings: mean individual louse survival time, in vitro pediculicidal treatment
Source text: Adults, nymphs, and nits of P. humanus capitis were collected from a population of children between the ages of 3 and 12, with the approval of their guardians, by raking a metal louse comb through sections of the scalp. Adult and nymph lice as well as nits (eggs) were obtained and pooled by carefully removing them from the metal teeth of the comb into clean plastic boxes. The children had not been treated with any pediculicide solution for at least the preceding month, using only the louse comb.
For testing the pediculicidal activity, a filter paper diffusion bioassay was made with adults and nymphs of the insect collected from heads no more than 4 hours before carrying out the assay. After careful selection under a dissecting microscope, 10 lice in a ratio of 8:2 adult:nymph III were placed on a filter paper disk (Whatman No 1; 9-cm diameter) on the lid of a Petri dish. Next, 0.5 ml of either (a) each test solution; (b) distilled water with Tween-20 (control); and (c) distilled water, Tween-20, and preserving agents (excipient control), were spread over the lice and filter paper for each group. The commercial lotions (containing tea tree oil and permethrin as chief active components) (0.5 ml) were simultaneously run as a positive controls. Three to nine replicates were conducted for each treatment. […] The number of dead lice were recorded for each dish.

| SMILES | Percentage inhibition, Day 4 (Sarcoptes scabiei nits; Day 4) | Percentage inhibition, Day 8 (Sarcoptes scabiei nits; Day 8) | ovicidal activity (in words) (Sarcoptes scabiei nits; nymph emergence, Table 2) | Mean survival time [1] |
| --- | --- | --- | --- | --- |
| CC[C@H](C)[C@H]1O[C@]2(CC[C@@H]1C)C[C@@H]1C[C@@H](C/C=C(\C)[C@@H](O[C@H]3C[C@H](OC)[C@@H](O[C@H]4C[C@H](OC)[C@@H](O)[C@H](C)O4)[C@H](C)O3)[C@@H](C)/C=C/C=C3\CO[C@@H]4[C@H](O)C(C)=C[C@@H](C(=O)O1)[C@]34O)O2 [Ivermectin (100 μ/μL), ivermectin] | 12.4 ± 5.0% | 9.8 ± 4.8% | poor ovicidal activity | – |
| CC1(C)C(C=C(Cl)Cl)C1C(=O)OCc1cccc(Oc2ccccc2)c1 (stereo not shown) [Permethrin, permethrin] | – | – | – | 56.4 min |

Reference: patent US20190160016A1, “Anti-Parasitic Compositions and Methods” (University of Canberra, priority 2016, published 2019)
